# Key:
# TrkA = biological target: T1, TrkA (Homo sapiens, UniProt P04629); test: TrkA tyrosine kinase inhibition assay (recombinant enzyme, polyGluTyr phosphorylation, 33P); type: biochemical; conditions: kinase domain of human TrkA, substrate PGT 0.1 mg/ml, 30 uM ATP, 1 hour at 30° C.
# T1 construct: The kinase domain of the human TrkA receptor is expressed in Sf9 insect cells as a histidine (His)-fusion protein; His; made in house; host or cells: Sf9 insect cells (baculovirus)
# From the text: The ability of compounds of the invention to inhibit tyrosine kinase activity of TrkA may be measured using a recombinant enzyme in an assay that measures the ability of compounds to inhibit the phosphorylation of the exogenous substrate, polyGluTyr (PGT, 4:1). The kinase domain of the human TrkA receptor is expressed in Sf9 insect cells as a histidine (His)-fusion protein using a baculovirus expression system. The protein is purified from the lysates of these cells using an Ni-NTA affinity column. After the recombinant enzyme is purified, it is activated by incubation with cold ATP. The enzyme assay is performed in a 96-well plate. Test compounds are first dissolved in dimethylsulfoxide (DMSO) and then serially-diluted in a 96-well plate. The serially-diluted compounds are transferred to the 96-well assay plate so that the final concentration of DMSO in the enzyme assay is 1.64%. All assay components are diluted in phosphorylation buffer (20 mm MOPS, 10 mM MgCl2, 1 mM EDTA, 0.015% Brij-35, 0.1 mg/ml BSA, 0.0025% Beta-Mercaptoethanol). The recombinant enzyme is added to the assay plate containing test compound and the reaction is initiated with a substrate solution containing a final concentration of 0.1 mg/ml PGT, 30 uM ATP, and 0.008mCi/ml ^33P-gammaATP (3000Ci/mmol). After a 1 hour incubation at 30° C., the reaction is terminated with 10% TCA and incubated at 4° C. for 1 hour. The reaction is filtered onto a Unifilter® GF/C™ filter plate that has been presoaked with 0.1M NaPyrophosphate. Microscint-20 is then added to the dried filter plate and the captured ^33P-phosphorylated PGT is quantitated on a microscintillation plate counter (TopCount•NXT™). Inhibition of the kinase enzymatic activity by the test compound is detected by a reduction in scintillation, and the concentration of compound that is required to inhibit the signal by 50% is reported as the IC50 value for the test compound.
# TrkB = biological target: T2, TrkB (Homo sapiens, UniProt Q16620); test: TrkB tyrosine kinase inhibition assay (recombinant enzyme, polyGluTyr phosphorylation, 33P); type: biochemical; conditions: kinase domain of human TrkB (amino acids 526-838), substrate PGT 0.1 mg/ml, 30 uM ATP, 1 hour at 30° C.
# T2 construct: The kinase domain of the human TrkB receptor (amino acids 526-838); His; purchased Invitrogen; host or cells: insect cells
# Experimental: The ability of compounds of the invention to inhibit tyrosine kinase activity of TrkB may be measured using a recombinant enzyme in an assay that measures the ability of compounds to inhibit the phosphorylation of the exogenous substrate, polyGluTyr (PGT, 4:1). The kinase domain of the human TrkB receptor (amino acids 526-838) is expressed in insect cells as a histidine (His)-fusion protein and is commercially available from Invitrogen™. The enzyme assay is performed in a 96-well plate. Test compounds are first dissolved in dimethylsulfoxide (DMSO) and then serially-diluted in a 96-well plate. The serially-diluted compounds are transferred to the 96-well assay plate so that the final concentration of DMSO in the enzyme assay is 1.64%. All assay components are diluted in phosphorylation buffer (20 mm MOPS, 10 mM MgCl2, 1 mM EDTA, 0.015% Brij-35, 0.1 mg/ml BSA, 0.0025% Beta-Mercaptoethanol). The recombinant enzyme is added to the assay plate containing test compound and the reaction is initiated with a substrate solution containing a final concentration of 0.1 mg/ml PGT, 30 uM ATP, and 0.008mCi/ml ^33P-gammaATP (3000 Ci/mmol). After a 1 hour incubation at 30° C., the reaction is terminated with 10% TCA and incubated at 4° C. for 1 hour. The reaction is filtered onto a Unifilter® GF/C™ filter plate that has been pre-soaked with 0.1M NaPyrophosphate. Microscint-20 is then added to the dried filter plate and the captured ^33P-phosphorylated PGT is quantitated on a microscintillation plate counter (TopCount•NXT™). Inhibition of the kinase enzymatic activity by the test compound is detected by a reduction in scintillation, and the concentration of compound that is required to inhibit the signal by 50% is reported as the IC50 value for the test compound.
# T2 sequence (Q16620 510-822): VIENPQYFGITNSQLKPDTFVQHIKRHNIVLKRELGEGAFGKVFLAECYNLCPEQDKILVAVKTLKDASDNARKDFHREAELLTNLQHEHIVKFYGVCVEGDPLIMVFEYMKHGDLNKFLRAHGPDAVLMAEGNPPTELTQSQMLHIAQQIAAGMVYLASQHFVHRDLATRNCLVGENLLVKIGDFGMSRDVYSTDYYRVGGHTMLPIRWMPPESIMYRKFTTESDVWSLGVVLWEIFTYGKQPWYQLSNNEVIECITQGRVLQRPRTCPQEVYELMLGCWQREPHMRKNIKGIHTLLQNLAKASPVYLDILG
# T1 sequence (P04629 510-781 limits assumed): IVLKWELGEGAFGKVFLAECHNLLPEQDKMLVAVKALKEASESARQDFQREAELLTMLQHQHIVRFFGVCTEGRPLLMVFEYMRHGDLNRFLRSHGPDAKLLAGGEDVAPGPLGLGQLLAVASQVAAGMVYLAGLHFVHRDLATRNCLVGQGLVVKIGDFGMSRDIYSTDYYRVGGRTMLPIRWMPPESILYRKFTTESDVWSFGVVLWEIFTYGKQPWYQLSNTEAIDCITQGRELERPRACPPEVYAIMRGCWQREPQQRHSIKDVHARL
IC50 (TrkA) [nM],IC50 (TrkB) [nM],Structure (SMILES)
0.3,0.8,"C[C@H](Nc1nc(Nc2cc(C3CC3)[nH]n2)nn2cccc12)c1ccc(F)cc1 [Example 1, N^2-(5-cyclopropyl-1H-pyrazol-3-yl)-N^4-((1S)-1-(4-fluorophenyl)ethyl)pyrrolo[2,1-f][1,2,4]triazine-2,4-diamine]"
0.5,2,"CCCC[C@H](C)Nc1nc(Nc2cc(C3CC3)[nH]n2)nn2cccc12 [Example 21, N^2-(5-cyclopropyl-1H-pyrazol-3-yl)-N^4-((1S)-1-methylpentyl)pyrrolo[2,1-ƒ][1,2,4]triazine-2,4-diamine]"
36,64,"CC(C)[C@@H](CO)Nc1nc(Nc2cc(C3CC3)[nH]n2)nn2cccc12 [Example 24, (2S)-2-((2-((5-cyclopropyl-1H-pyrazol-3-yl)amino)pyrrolo[2,1-ƒ][1,2,4]triazin-4-yl)amino)-3-methyl-1-butanol]"
2,3,"C[C@H](Nc1nc(Nc2cc(C3CC3)[nH]n2)nn2cccc12)C1CCCCC1 [Example 32, N^4-((1S)-1-cyclohexylethyl)-N^2-(5-cyclopropyl-1H-pyrazol-3-yl)pyrrolo[2,1-ƒ][1,2,4]triazine-2,4-diamine]"

# Source: patent US8268998B2, “Pyrrolotriazine kinase inhibitors” (Bristol-Myers Squibb Company, priority 2006, dated 2012)
